{"source": "patent US8852928B2", "about": "“LexA-based chemical-inducible gene expression system for use in transgenic animals” (Temasek Life Sciences Laboratory Limited, priority 2007, dated 2014)", "key": {"LexPR transactivator": {"target": "T1, LexPR transactivator (Homo sapiens, UniProt P06401)", "T1 construct": "expressed in transfected cells; host or cells: germline-transgenic zebrafish (Danio rerio) carrying the Ds transposon driver cassette pDs(krt8:LPR-LOP:G4) or derivatives", "T1 sequence (P06401 640-914)": "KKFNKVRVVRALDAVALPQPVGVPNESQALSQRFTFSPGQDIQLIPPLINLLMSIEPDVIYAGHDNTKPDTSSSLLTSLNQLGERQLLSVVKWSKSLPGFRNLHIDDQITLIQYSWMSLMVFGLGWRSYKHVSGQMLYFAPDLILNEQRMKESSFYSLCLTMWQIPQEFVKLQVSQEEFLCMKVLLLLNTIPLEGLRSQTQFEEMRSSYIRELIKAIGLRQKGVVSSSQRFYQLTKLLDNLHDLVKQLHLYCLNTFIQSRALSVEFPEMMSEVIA", "assay": "Time required to switch off EGFP reporter expression after mifepristone withdrawal", "type": "in vivo, zebrafish", "design": "key to Reporter expression, RU486 incubation / Reporter expression after RU486 withdrawal / Reporter expression, continuous induction (time of RU486 incubation): +: Fluorescence signal is similar to the control.; ±: Fluorescence signal is obviously weaker that in control.; −: No EGFP fluorescence (except autofluorescence)observed using the fluorescent stereomicroscope", "source_text": "To avoid confusion, the corresponding developmental times are indicated. A Nikon SMZ1600 fluorescent stereomicroscope was used for rough estimation of the EGFP fluorescence."}, "zebrafish development": {"test_system": "zebrafish development", "assay": "Side effects on development of LexPR transgenic fish upon induction", "type": "in vivo", "from_the_text": "FIG. 13b: Control wild type fish. FIG. 13c: Transgenic F2 embryos harboring the LexPR driver-reporter cassette described in this manuscript."}}}
{"smiles": "CC#C[C@]1(O)CC[C@H]2[C@@H]3CCC4=CC(=O)CCC4=C3[C@@H](c3ccc(N(C)C)cc3)C[C@@]21C", "note": "[mifepristone]", "values": [{"measurement": "Reporter expression, continuous induction (time of RU486 incubation)", "setting": "LexPR transactivator; 10 nM, 12 h incubation", "value": "±"}, {"measurement": "Reporter expression, continuous induction (time of RU486 incubation)", "setting": "LexPR transactivator; 10 nM, 13 h incubation, 49hpf", "value": "±"}, {"measurement": "Reporter expression, continuous induction (time of RU486 incubation)", "setting": "LexPR transactivator; 10 nM, 24 h incubation, 60hpf", "value": "+"}, {"measurement": "Reporter expression, RU486 incubation", "setting": "LexPR transactivator; 100 nM, 1 hour RU486 incubation - withdrawal, at 1 h incubation, 37hpf", "value": "−"}, {"measurement": "Reporter expression after RU486 withdrawal", "setting": "LexPR transactivator; 100 nM, 1 hour RU486 incubation, 12 h after withdrawal, 49hpf", "value": "+"}, {"measurement": "Reporter expression after RU486 withdrawal", "setting": "LexPR transactivator; 100 nM, 1 hour RU486 incubation, 24 h after withdrawal, 61hpf", "value": "+"}, {"measurement": "Reporter expression after RU486 withdrawal", "setting": "LexPR transactivator; 100 nM, 1 hour RU486 incubation, 48 h after withdrawal, 85hpf", "value": "−"}, {"measurement": "Reporter expression after RU486 withdrawal", "setting": "LexPR transactivator; 100 nM, 1 hour RU486 incubation, 72 h after withdrawal, 109hpf", "value": "−"}, {"measurement": "Reporter expression after RU486 withdrawal", "setting": "LexPR transactivator; 100 nM, 1 hour RU486 incubation, 96 h after withdrawal, 133hpf", "value": "−"}, {"measurement": "Reporter expression after RU486 withdrawal", "setting": "LexPR transactivator; 100 nM, 1 hour RU486 incubation, 120 h after withdrawal, 157hpf", "value": "−"}, {"measurement": "Reporter expression after RU486 withdrawal", "setting": "LexPR transactivator; 100 nM, 1 hour RU486 incubation, 144 h after withdrawal, 181hpf", "value": "−"}, {"measurement": "Minimal time after RU486 withdrawal to turn off the reporter expression", "setting": "LexPR transactivator; 100 nM, 1 hour induction", "value": 2, "unit": "days"}, {"measurement": "Reporter expression, RU486 incubation", "setting": "LexPR transactivator; 100 nM, 12 hours RU486 incubation - withdrawal, at 12 h incubation, 48hpf", "value": "+"}, {"measurement": "Reporter expression after RU486 withdrawal", "setting": "LexPR transactivator; 100 nM, 12 hours RU486 incubation, 12 h after withdrawal, 60hpf", "value": "+"}, {"measurement": "Reporter expression after RU486 withdrawal", "setting": "LexPR transactivator; 100 nM, 12 hours RU486 incubation, 24 h after withdrawal, 72hpf", "value": "±"}, {"measurement": "Reporter expression after RU486 withdrawal", "setting": "LexPR transactivator; 100 nM, 12 hours RU486 incubation, 48 h after withdrawal, 96hpf", "value": "±"}, {"measurement": "Reporter expression after RU486 withdrawal", "setting": "LexPR transactivator; 100 nM, 12 hours RU486 incubation, 72 h after withdrawal, 120hpf", "value": "−"}, {"measurement": "Reporter expression after RU486 withdrawal", "setting": "LexPR transactivator; 100 nM, 12 hours RU486 incubation, 96 h after withdrawal, 144hpf", "value": "−"}, {"measurement": "Reporter expression after RU486 withdrawal", "setting": "LexPR transactivator; 100 nM, 12 hours RU486 incubation, 120 h after withdrawal, 168hpf", "value": "−"}, {"measurement": "Reporter expression after RU486 withdrawal", "setting": "LexPR transactivator; 100 nM, 12 hours RU486 incubation, 144 h after withdrawal, 192hpf", "value": "−"}, {"measurement": "Minimal time after RU486 withdrawal to turn off the reporter expression", "setting": "LexPR transactivator; 100 nM, 12 hours induction", "value": 3, "unit": "days"}, {"measurement": "Reporter expression, continuous induction (time of RU486 incubation)", "setting": "LexPR transactivator; 100 nM, 24-156 h incubation, 60-192 hpf", "value": "+"}, {"measurement": "Reporter expression, continuous induction (time of RU486 incubation)", "setting": "LexPR transactivator; 100 nM, 1 h incubation", "value": "−"}, {"measurement": "Reporter expression, continuous induction (time of RU486 incubation)", "setting": "LexPR transactivator; 100 nM, 12 h incubation", "value": "+"}, {"measurement": "Reporter expression, continuous induction (time of RU486 incubation)", "setting": "LexPR transactivator; 100 nM, 13 h incubation, 49hpf", "value": "+"}, {"measurement": "Reporter expression, continuous induction (time of RU486 incubation)", "setting": "LexPR transactivator; 100 nM, 24 h incubation, 60hpf", "value": "+"}, {"measurement": "Reporter expression, RU486 incubation", "setting": "LexPR transactivator; 1 μM, 1 hour RU486 incubation - withdrawal, at 1 h incubation, 37hpf", "value": "−"}, {"measurement": "Reporter expression after RU486 withdrawal", "setting": "LexPR transactivator; 1 μM, 1 hour RU486 incubation, 12 h after withdrawal, 49hpf", "value": "+"}, {"measurement": "Reporter expression after RU486 withdrawal", "setting": "LexPR transactivator; 1 μM, 1 hour RU486 incubation, 24 h after withdrawal, 61hpf", "value": "+"}, {"measurement": "Reporter expression after RU486 withdrawal", "setting": "LexPR transactivator; 1 μM, 1 hour RU486 incubation, 48 h after withdrawal, 85hpf", "value": "+"}, {"measurement": "Reporter expression after RU486 withdrawal", "setting": "LexPR transactivator; 1 μM, 1 hour RU486 incubation, 72 h after withdrawal, 109hpf", "value": "±"}, {"measurement": "Reporter expression after RU486 withdrawal", "setting": "LexPR transactivator; 1 μM, 1 hour RU486 incubation, 96 h after withdrawal, 133hpf", "value": "±"}, {"measurement": "Reporter expression after RU486 withdrawal", "setting": "LexPR transactivator; 1 μM, 1 hour RU486 incubation, 120 h after withdrawal, 157hpf", "value": "−"}, {"measurement": "Reporter expression after RU486 withdrawal", "setting": "LexPR transactivator; 1 μM, 1 hour RU486 incubation, 144 h after withdrawal, 181hpf", "value": "−"}, {"measurement": "Minimal time after RU486 withdrawal to turn off the reporter expression", "setting": "LexPR transactivator; 1 μM, 1 hour induction", "value": 5, "unit": "days"}, {"measurement": "Reporter expression, RU486 incubation", "setting": "LexPR transactivator; 1 μM, 12 hours RU486 incubation - withdrawal, at 12 h incubation, 48hpf", "value": "+"}, {"measurement": "Reporter expression after RU486 withdrawal", "setting": "LexPR transactivator; 1 μM, 12 hours RU486 incubation, 12 h after withdrawal, 60hpf", "value": "+"}, {"measurement": "Reporter expression after RU486 withdrawal", "setting": "LexPR transactivator; 1 μM, 12 hours RU486 incubation, 24 h after withdrawal, 72hpf", "value": "+"}, {"measurement": "Reporter expression after RU486 withdrawal", "setting": "LexPR transactivator; 1 μM, 12 hours RU486 incubation, 48 h after withdrawal, 96hpf", "value": "+"}, {"measurement": "Reporter expression after RU486 withdrawal", "setting": "LexPR transactivator; 1 μM, 12 hours RU486 incubation, 72 h after withdrawal, 120hpf", "value": "±"}, {"measurement": "Reporter expression after RU486 withdrawal", "setting": "LexPR transactivator; 1 μM, 12 hours RU486 incubation, 96 h after withdrawal, 144hpf", "value": "±"}, {"measurement": "Reporter expression after RU486 withdrawal", "setting": "LexPR transactivator; 1 μM, 12 hours RU486 incubation, 120 h after withdrawal, 168hpf", "value": "±"}, {"measurement": "Reporter expression after RU486 withdrawal", "setting": "LexPR transactivator; 1 μM, 12 hours RU486 incubation, 144 h after withdrawal, 192hpf", "value": "−"}, {"measurement": "Minimal time after RU486 withdrawal to turn off the reporter expression", "setting": "LexPR transactivator; 1 μM, 12 hours induction", "value": 6, "unit": "days"}, {"measurement": "Reporter expression, continuous induction (time of RU486 incubation)", "setting": "LexPR transactivator; 1 μM, 24-156 h incubation, 60-192 hpf", "value": "+"}, {"measurement": "Reporter expression, continuous induction (time of RU486 incubation)", "setting": "LexPR transactivator; 1 μM, 1 h incubation", "value": "−"}, {"measurement": "Reporter expression, continuous induction (time of RU486 incubation)", "setting": "LexPR transactivator; 1 μM, 12 h incubation", "value": "+"}, {"measurement": "Reporter expression, continuous induction (time of RU486 incubation)", "setting": "LexPR transactivator; 1 μM, 13 h incubation, 49hpf", "value": "+"}, {"measurement": "Reporter expression, continuous induction (time of RU486 incubation)", "setting": "LexPR transactivator; 1 μM, 24 h incubation, 60hpf", "value": "+"}, {"measurement": "Duration of EGFP fluorescence in mifepristone-free water", "setting": "LexPR transactivator; following 12 hours treatment with 1 μM", "value": 5, "unit": "days"}, {"measurement": "Effect on embryo development and cell morphology, LexPR driver-reporter F2 embryos", "setting": "zebrafish development; 1 μM in the growth water 10 hpf onwards", "value": "does not affect embryo development and morphology of the EGFP-positive cells"}, {"measurement": "Side effects on zebrafish development", "setting": "zebrafish development; 10 μM at 1-cell stage, LexPR system", "value": "did not observe obvious side effects"}]}
